Literature values as cited in patent US20230131493A1, “METHODS OF TREATING AGITATION ASSOCIATED WITH ALZHEIMER'S DISEASE” (Avanir Phrmaceuticals Inc., priority 2021, published 2023).
Where a name gives a salt, the structure may show the parent alone.

Key:
[1] = a P-glycoprotein substrate
sigma-1 receptor = sigma-1 receptor (Homo sapiens, UniProt Q99720)
sigma-1 receptor, sequence (Q99720 whole entry, species assumed): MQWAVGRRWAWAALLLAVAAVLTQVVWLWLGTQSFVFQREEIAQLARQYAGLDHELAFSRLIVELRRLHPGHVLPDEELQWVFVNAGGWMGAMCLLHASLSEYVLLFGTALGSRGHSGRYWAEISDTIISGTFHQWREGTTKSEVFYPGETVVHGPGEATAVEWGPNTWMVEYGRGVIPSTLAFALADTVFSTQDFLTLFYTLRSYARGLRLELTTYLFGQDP

Compound	serum digoxin levels on concomitant administration with digoxin [1]	receptor binding (sigma-1 receptor)
C=C[C@H]1CN2CC[C@H]1C[C@@H]2[C@@H](O)c1ccnc2ccc(OC)cc12.C=C[C@H]1CN2CC[C@H]1C[C@@H]2[C@@H](O)c1ccnc2ccc(OC)cc12.O=S(=O)(O)O [Quinidine, quinidine sulfate]	may be as much as doubled	–
[2H]C([2H])([2H])Oc1ccc2c(c1)[C@]13CCCC[C@@H]1[C@H](C2)N(C([2H])([2H])[2H])CC3 [d6-DM, deuterated [d6]-dextromethorphan hydrobromide]	–	binds to the sigma-1 receptor
